Data reported in patent US20160089464A1, “MALODOR REDUCTION COMPOSITIONS” (The Procter & Gamble Company, priority 2014, published 2016).

assay: Comment Code material properties: vapor pressure, ClogP, probability of ingredient color instability, odor detection threshold, melamine formaldehyde PMC headspace response ratio and leakage, liquid dish neat product liquid-air partition coefficient; type: physicochemical; details: Table 1 materials; each letter of the code is one property class (vapor pressure, ClogP, color instability, odor detection threshold, PMC headspace ratio, PMC leakage, liquid dish liquid-air partition coefficient)

SMILES	Comment Code
CC(=O)C=CC1C(C)=CCC(C)C1(C)C (stereo not drawn) [Material 704]	BDHJK
C=C(C)C1CCC2(C)CCC=C(C)C2C1 (stereo not drawn) [Material 774]	BDEFHJK
CCCCC=CC=CC=O [Material 738]	ACHKL
C=C(C)C1CC=C(C)CC1 (stereo not drawn) [Material 702]	ADEFGIJKL
CC1=CCCC2(C)CCC(C(C)(C)O)CC12 (stereo not drawn) [Material 775]	DEFHJK
CC1(O)CCC2=C(CCCC2(C)C)C1 (stereo not drawn) [Material 675]	DEFHJK
COC(=O)c1ccccc1N=CC1CC(C)=CC(C)C1 (stereo not drawn) [Material 754]	DEFHJ
CCCCOC(=O)C(C)OC(=O)CCC (stereo not drawn) [Material 595]	CEFGJK
COc1c2ccoc2cc2oc(=O)ccc12 [Material 638]	CGJ
CCC(O)COC1CCCCC1C(C)(C)C (stereo not drawn) [Material 677]	DEFHJK
CC(=O)CCCC(C)CCCC(C)CCCC(C)C (stereo not drawn) [Material 782]	DEFHJK
CC1=CCC(O)(C(C)C)CC1 (stereo not drawn) [Material 791]	BCHIJK
O=C(Cc1ccccc1)OCCc1ccccc1 [Material 959]	DHJ
CC1=CC2C(CC1)C(C)=CCC2C(C)C (stereo not drawn) [Material 725]	DEFHJKL
C[C@@H]1CC[C@H]2C(C)(C)[C@H]3C[C@@]12CC1OC(C)(C)OC13C (stereo partly drawn) [Material 674]	DEFHJK
COc1ccc(CC(C)C=O)cc1 (stereo not drawn) [Material 586]	BCHJK
CCCCCC(=Cc1ccccc1)COC(C)=O [Material 722]	DEFHJ
CC(=O)O[C@]1(C)CC[C@@]23C[C@@H]1C(C)(C)[C@@H]2CC[C@H]3C [Material 567]	DEFHJK
C=CC/C=C/CCC(=O)OC [Material 668]	ACEFHKL
CCC=C1OC(=O)c2ccccc21 [Material 805]	CEFHK
C=C1CCC23CC1C(C)(C)C2CCC3C (stereo not drawn) [Material 632]	BDEFGJKL
CCOCOC1CCCCCCCCCCC1 [Material 607]	DEFHJK
O=C1CCCCCC=CCCCCCCCCO1 [Material 771]	DGJ
C=C1C=CC(C(C)CCC=C(C)C)CC1 (stereo not drawn) [Material 614]	DEFHJK
C=C1C2CCC(C2)C1(C)C (stereo not drawn) [Material 589]	ADEFGIJKL
CC(C)c1ccc2ncccc2c1 [Material 778]	CEFHJK

More lines, now with the values ahead:

Comment Code	SMILES
ACEFHK	CCC=CCC=CCCO [Material 929]
BCFHJK	CCCCCCCC/C=C\CC=O [Material 884]
ACHKL	CC/C=C/CC/C=C/C=O [Material 829]
DEFHJK	CC1=CC2C(C(C)C)CCC(C)(O)C2CC1 (stereo not drawn) [Material 1047]
DFHJ	CCC(=O)OCC(=O)OC(C)C1CCCC(C)(C)C1 (stereo not drawn) [Material 1009]
BDEFHIJKL	CCCCCCC1OC(=O)CC1C (stereo not drawn) [Material 941]
DEFHJK	CC1=C2CCC(C)C2CC(C(C)(C)O)CC1 (stereo not drawn) [Material 920]
BCEFGIJKL	CCC(C)(O)CCC=C(C)C (stereo not drawn) [Material 877]
DEFHJK	CC1=CC2CC(C3OCCO3)C1CC2C(C)C (stereo not drawn) [Material 912]
CHJ	COc1cc(C=O)ccc1OC(=O)C(C)C [Material 1111]
BDFHJK	CC(C)(C=O)CC1=CCC2CC1C2(C)C (stereo not drawn) [Material 925]
ADHIJKL	CC1C(C)(C)c2ccccc2C1(C)C [Material 879]
ACHKL	CC/C=C\CC/C=C/C=O [Material 1066]
ACHKL	CCC=CCCC=CC=O [Material 864]
ACEFGIKL	CC(O)CO (stereo not drawn) [Material 993]
ADHIJKL	C=C1CCCC(C)(C)C1C(=O)OC (stereo not drawn) [Material 1010]
DFHJ	COC(=O)c1ccccc1NC(O)CC(C)c1ccccc1 (stereo not drawn) [Material 1093]
ADHJK	CCCCCCCCC=CC=O [Material 828]
DFHJK	CC1=C2CC(C(C)(C)O)CCC2(C)CCC1 (stereo not drawn) [Material 872]
ACEFHK	CC/C=C\C/C=C/CCO [Material 1072]

same assay, conditions: cell strings several class symbols together; each letter is one property class of L1

SMILES	Comment Code
COC(=O)C=C1CCCC1 [Material 116]	ACEFHIKL
CC(C)=CCC/C(C)=C/COC=O [Material 306]	BCEFHJK
CC(=O)OC1CC2C3C=CCC3C1C2(C)C (stereo not drawn) [Material 360]	DEFHJK
CCOC(=O)OC1CCCCC1C(C)(C)C (stereo not drawn) [Material 365]	ACFHIKL
COc1ccc(C=O)cc1OC [Material 1118]	BCGIK
CC(C)C1CCC(CO)CC1 (stereo not drawn) [Material 133]	BDEFHIJK
C=C(C)CC(C)OC(=O)C(C)C (stereo not drawn) [Material 201]	ADEFGIJKL
CC1CCC2CC1C2(C)C (stereo not drawn) [Material 525]	ADEFGIJKL
O=C(O)CCc1ccccc1 [Material 255]	CEFHIK
CC=CC(=O)OCCCCCC [Material 55]	ADEFHJKL
C/C=C1/CC2CC1C1CCC(=O)OC21 (stereo not drawn) [Material 353]	CEFGJK
N#C/C=C/c1ccccc1 [Material 556]	ACEFGIK
CC/C=C\CCOC(=O)OC [Material 163]	ACEFGKL
CCCCCOC(=O)c1ccccc1 [Material 672]	DEFHJK
C[C@@H]1CC[C@H]2C(C)(C)[C@H]3C[C@@]12CC1OC(C)(C)OC13C (stereo partly drawn) [Material 674]	DEFHJK
CC1=CCC(C=CC(C)(C)C(C)O)C1(C)C (stereo not drawn) [Material 53]	CEFHJ

SMILES	Comment Code
CC(=O)O[C@]1(C)CC[C@@]23C[C@@H]1C(C)(C)[C@@H]2CC[C@H]3C [Material 567]	DEFHJK
COc1ccccc1C=CC=O [Material 26]	ACHK
C=CC(C)(CCC=C(C)C)OC (stereo not drawn) [Material 24]	ADHIJKL
COC(C)(C)CCCC(C)C=O (stereo not drawn) [Material 125]	ACGIJK
C=C(C)C1CC=C(C)C(=O)C1 (stereo not drawn) [Material 576]	ACGIJKL
COC1=C(C)OC(C)C1=O (stereo not drawn) [Material 740]	ACEFGIJKL
CC(O)C(C)/C=C1\C[C@H]2C[C@@H]1[C@@H]1C=CC[C@H]21 (stereo partly drawn) [Material 359]	DEFHJK
CC/C=C\CCOC(=O)CC [Material 538]	ACEFHIKL
C=C1CCC23CC1C(C)(C)C2CCC3C (stereo not drawn) [Material 632]	BDEFGJKL
CCOC(=O)OC1CCCCC1C(C)(C)C (stereo not drawn) [Material 355]	BDFHJK
CC1COCc2cc3c(cc21)C(C)(C)C(C)C3(C)C (stereo not drawn) [Material 335]	DEFHJK
O=C1CCc2ccccc2O1 [Material 442]	BCGIKL
OCc1ccccc1 [Material 652]	ACEFGIKL
CC(C)=CCCC(C)CCOC(=O)c1ccccc1 (stereo not drawn) [Material 515]	DFHJ
CC(=O)OCCCCCCC(C)C [Material 204]	BDEFHJKL
COc1ccc(C(C)=O)cc1 [Material 761]	BCEFHIK

Results, then the compound that gave them:

Comment Code	SMILES
DHJK	C/C=C(\C)C(=O)OCCc1ccccc1 [Material 960]
ADEFGIJKL	C=C1CCC2(C(C)C)CC12 (stereo not drawn) [Material 1018]
BDHIJK	CC=CC(=O)C1C(C)=CCCC1(C)C (stereo not drawn) [Material 880]
ACEFHIK	C=C(OC(C)=O)c1ccccc1 [Material 931]
ADGIJKL	Cc1ccc(C(C)C)cc1 [Material 940]
ACEFHIKL	CCC/C=C/CO [Material 1069]
ACGIKL	COC(C)(C)CCO [Material 812]
DEFHJ	COC(=O)c1ccccc1/N=C\C1CCC(C)=CC1C (stereo not drawn) [Material 1131]
BDEFHJK	CCCOC(=O)[C@H](C)OC(C)(C)CC [Material 1030]
BDFGIJKL	CCCCCC1(C)CCC(C)(C)C1=O (stereo not drawn) [Material 1115]
BDHIJK	CC=CC(=O)C1C(C)=CCCC1(C)C (stereo not drawn) [Material 1074]
BCEFGIJK	C=C[C@@](C)(O)CCC=C(C)C [Material 1017]
ADFGIJKL	CC(C)CC=C(C=O)C(C)C [Material 847]
BCEFGIJK	C=C[C@](C)(O)CCC=C(C)C [Material 888]
BDEFHIJK	CCC(C)(C)C1CCC(O)CC1 (stereo not drawn) [Material 995]
ACEFGIJK	CNC(=O)C(C)(C(C)C)C(C)C [Material 846]
ACEFGIJKL	CC1=CC(=O)C2CC1C2(C)C (stereo not drawn) [Material 883]
ACEFHIJKL	CCCC(C)(S)CO (stereo not drawn) [Material 1098]

same assay, conditions: letter codes A-L: vapor pressure, ClogP, probability of ingredient color instability, odor detection threshold, PMC headspace response ratio, PMC leakage, liquid dish liquid-air partition coefficient; Table 1 materials with at least one MORV from 1 to 5

SMILES	Comment Code
COC(=O)c1ccccc1/N=C\C1CCC(C)=CC1C (stereo not drawn) [Material 1131]	DEFHJ
COc1cc(CCC(C)=O)ccc1O [Material 1146]	CEFGJ
CC1=CC2=C(C(C)C)CC[C@@H](C)[C@H]2CC1 [Material 1147]	DEFHJKL
